# Results taken from patent publication US9980943B2, “Methods of treating muscular dystrophy” (BOARD OF REGENTS OF THE NEVADA SYSTEM OF HIGHER EDUCATION, …, priority 2013, dated 2018).
# What was measured:
# Type in all cases: cell-based, mouse
# [1] = test system: β-galactosidase in CMV-LacZ C2C12 myoblasts; assay: CMV-LacZ secondary screen in C2C12 myoblasts (β-Gal stabilizing assay); details: for CMV-LACZ in Myoblasts (β-galactosidase activity relative to DMSO): CMV-LacZ C2C12 myoblasts; for CMV-LACZ in Myoblasts, value relative to DMSO: SU9516 analogs, C2C12 CMV-LacZ, N=2
# Outline: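 β-gal stabilization was measured in C2C12 myoblasts or myotubes stably transfected with a CMV-driven LacZ construct, using the FDG β-gal assay. Compounds were tested in dose-response at 0.5, 1, 5, 10, 20 and 40 μM, with two replicates per point.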
# [2] = test system: β-galactosidase in CMV-LacZ C2C12 myotubes; assay: CMV-LacZ secondary screen in C2C12 myotubes (β-Gal stabilizing assay); details: for CMV-LACZ in Myotubes, signal relative to DMSO: C2C12 CMV-LacZ myotubes, fold relative to DMSO; for CMV-LACZ in Myotubes, value relative to DMSO: SU9516 analogs, C2C12 CMV-LacZ, N=2
# Outline: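 CMV-LacZ C2C12 line (clonal, FDG-screened); myoblasts/myotubes dosed 0.5–40 μM (0.5, 1, 5, 10, 20, 40 μM); n=2 per point; β-gal stabilization read-out.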
# [3] = test system: α7 integrin (LacZ reporter in α7+/LacZ myotubes); assay: Myotube α7 integrin FDG assay (Burkin assay in myotubes, 96-well); details: for Burkin Assay in Myotubes, value relative to DMSO: SU9516 analogs, 96-well, N=3-6
# [4] = test system: α7 integrin (LacZ reporter in α7βgal+/− myoblasts); assay: Myoblast α7+/LacZ integrin FDG assay (Burkin assay in myoblasts, 96-well); details: 96-well; for Burkin Assay in Myoblasts, signal relative to DMSO: α7+/LacZ myoblasts; for Burkin Assay in Myoblasts, value relative to DMSO: SU9516 analogs, N=3-6
smiles,measurement,setting,value
O=c1[nH]c(SCc2ccc(Cl)cc2)nc2ccsc12 [MLS000755214-01],CMV-LACZ in Myoblasts (β-galactosidase activity relative to DMSO),[1]; 0.5 uM,1.0190
same,CMV-LACZ in Myoblasts (β-galactosidase activity relative to DMSO),[1]; 1 uM,1.1650
same,CMV-LACZ in Myoblasts (β-galactosidase activity relative to DMSO),[1]; 5 uM,0.9281
same,CMV-LACZ in Myoblasts (β-galactosidase activity relative to DMSO),[1]; 10 uM,1.0994
same,CMV-LACZ in Myoblasts (β-galactosidase activity relative to DMSO),[1]; 20 uM,1.0835
same,CMV-LACZ in Myoblasts (β-galactosidase activity relative to DMSO),[1]; 40 uM,0.8172
same,"CMV-LACZ in Myotubes, signal relative to DMSO",[2]; 0.5 uM,0.9543
same,"CMV-LACZ in Myotubes, signal relative to DMSO",[2]; 1 uM,0.8600
same,"CMV-LACZ in Myotubes, signal relative to DMSO",[2]; 5 uM,1.0763
same,"CMV-LACZ in Myotubes, signal relative to DMSO",[2]; 10 uM,1.0591
same,"CMV-LACZ in Myotubes, signal relative to DMSO",[2]; 20 uM,0.9280
same,"CMV-LACZ in Myotubes, signal relative to DMSO",[2]; 40 uM,1.0190
same,"Burkin Assay in Myotubes, α7 integrin LacZ reporter signal relative to DMSO",[3]; 0.5 uM,1.01
same,"Burkin Assay in Myotubes, α7 integrin LacZ reporter signal relative to DMSO",[3]; 1 uM,0.9661
same,"Burkin Assay in Myotubes, α7 integrin LacZ reporter signal relative to DMSO",[3]; 5 uM,0.9321
same,"Burkin Assay in Myotubes, α7 integrin LacZ reporter signal relative to DMSO",[3]; 10 uM,1.0353
same,"Burkin Assay in Myotubes, α7 integrin LacZ reporter signal relative to DMSO",[3]; 20 uM,0.9655
same,"Burkin Assay in Myotubes, α7 integrin LacZ reporter signal relative to DMSO",[3]; 40 uM,0.8312
same,"Burkin Assay in Myoblasts, signal relative to DMSO",[4]; 0.5 uM,1.077
same,"Burkin Assay in Myoblasts, signal relative to DMSO",[4]; 1 uM,1.021
same,"Burkin Assay in Myoblasts, signal relative to DMSO",[4]; 5 uM,0.9757
same,"Burkin Assay in Myoblasts, signal relative to DMSO",[4]; 10 uM,0.9635
same,"Burkin Assay in Myoblasts, signal relative to DMSO",[4]; 20 uM,0.8448
same,"Burkin Assay in Myoblasts, signal relative to DMSO",[4]; 40 uM,0.861
O=C(O)c1csc(-c2cccs2)n1 [MLS000760876-01],CMV-LACZ in Myoblasts (β-galactosidase activity relative to DMSO),[1]; 0.5 uM,0.9069
same,CMV-LACZ in Myoblasts (β-galactosidase activity relative to DMSO),[1]; 1 uM,1.0546
same,CMV-LACZ in Myoblasts (β-galactosidase activity relative to DMSO),[1]; 5 uM,0.8293
same,CMV-LACZ in Myoblasts (β-galactosidase activity relative to DMSO),[1]; 10 uM,0.8973
same,CMV-LACZ in Myoblasts (β-galactosidase activity relative to DMSO),[1]; 20 uM,0.9396
same,CMV-LACZ in Myoblasts (β-galactosidase activity relative to DMSO),[1]; 40 uM,0.8504
same,"CMV-LACZ in Myotubes, signal relative to DMSO",[2]; 0.5 uM,1.0248
same,"CMV-LACZ in Myotubes, signal relative to DMSO",[2]; 1 uM,1.1010
same,"CMV-LACZ in Myotubes, signal relative to DMSO",[2]; 5 uM,1.1074
same,"CMV-LACZ in Myotubes, signal relative to DMSO",[2]; 10 uM,0.9789
same,"CMV-LACZ in Myotubes, signal relative to DMSO",[2]; 20 uM,0.9482
same,"CMV-LACZ in Myotubes, signal relative to DMSO",[2]; 40 uM,1.2565
same,"Burkin Assay in Myotubes, α7 integrin LacZ reporter signal relative to DMSO",[3]; 0.5 uM,1.2427
same,"Burkin Assay in Myotubes, α7 integrin LacZ reporter signal relative to DMSO",[3]; 1 uM,1.256
same,"Burkin Assay in Myotubes, α7 integrin LacZ reporter signal relative to DMSO",[3]; 5 uM,1.249
same,"Burkin Assay in Myotubes, α7 integrin LacZ reporter signal relative to DMSO",[3]; 10 uM,0.9755
same,"Burkin Assay in Myotubes, α7 integrin LacZ reporter signal relative to DMSO",[3]; 20 uM,0.8634
same,"Burkin Assay in Myotubes, α7 integrin LacZ reporter signal relative to DMSO",[3]; 40 uM,0.8993
same,"Burkin Assay in Myoblasts, signal relative to DMSO",[4]; 0.5 uM,1.0287
same,"Burkin Assay in Myoblasts, signal relative to DMSO",[4]; 1 uM,0.9856
same,"Burkin Assay in Myoblasts, signal relative to DMSO",[4]; 5 uM,1.812
same,"Burkin Assay in Myoblasts, signal relative to DMSO",[4]; 10 uM,0.9113
same,"Burkin Assay in Myoblasts, signal relative to DMSO",[4]; 20 uM,1.102
same,"Burkin Assay in Myoblasts, signal relative to DMSO",[4]; 40 uM,0.9504
COc1ccc2c(c1)C(=C(C#N)C#N)C(=O)N2CCc1ccccc1 [MLS000763074-01],"CMV-LACZ in Myoblasts, value relative to DMSO",[1]; 0.5 uM,0.8431
same,"CMV-LACZ in Myoblasts, value relative to DMSO",[1]; 1 uM,0.8256
same,"CMV-LACZ in Myoblasts, value relative to DMSO",[1]; 5 uM,1.1447
same,"CMV-LACZ in Myoblasts, value relative to DMSO",[1]; 10 uM,1.1966
same,"CMV-LACZ in Myoblasts, value relative to DMSO",[1]; 20 uM,1.2981
same,"CMV-LACZ in Myoblasts, value relative to DMSO",[1]; 40 uM,1.6644
same,"CMV-LACZ in Myotubes, value relative to DMSO",[2]; 0.5 uM,1.0089
same,"CMV-LACZ in Myotubes, value relative to DMSO",[2]; 1 uM,0.8593
same,"CMV-LACZ in Myotubes, value relative to DMSO",[2]; 5 uM,1.0487
same,"CMV-LACZ in Myotubes, value relative to DMSO",[2]; 10 uM,0.9645
same,"CMV-LACZ in Myotubes, value relative to DMSO",[2]; 20 uM,1.7671
same,"CMV-LACZ in Myotubes, value relative to DMSO",[2]; 40 uM,1.9682
same,"Burkin Assay in Myotubes, value relative to DMSO",[3]; 0.5 uM,1.0274
same,"Burkin Assay in Myotubes, value relative to DMSO",[3]; 1 uM,1.128
same,"Burkin Assay in Myotubes, value relative to DMSO",[3]; 5 uM,1.043
same,"Burkin Assay in Myotubes, value relative to DMSO",[3]; 10 uM,0.907
same,"Burkin Assay in Myotubes, value relative to DMSO",[3]; 20 uM,0.1921
same,"Burkin Assay in Myotubes, value relative to DMSO",[3]; 40 uM,0.2622
same,"Burkin Assay in Myoblasts, value relative to DMSO",[4]; 0.5 uM,1.199
same,"Burkin Assay in Myoblasts, value relative to DMSO",[4]; 1 uM,1.067
same,"Burkin Assay in Myoblasts, value relative to DMSO",[4]; 5 uM,0.843
same,"Burkin Assay in Myoblasts, value relative to DMSO",[4]; 10 uM,1.134
same,"Burkin Assay in Myoblasts, value relative to DMSO",[4]; 20 uM,0.6586
same,"Burkin Assay in Myoblasts, value relative to DMSO",[4]; 40 uM,0.6085
